Laboratory results taken from patent publication US20180185510A1, “ANTIBODY DRUG CONJUGATES OF KINESIN SPINDEL PROTEIN (KSP) INHIBITORS WITH ANTI-B7H3-ANTIBODIES” (BAYER PHARMA AKTIENGESELLSCHAFT, priority 2015, published 2018).

Legend:
[1] = test system: Caco-2 cells; test: Flux assay for cell permeability using Caco-2 cells; conditions: Caco-2, basal to apical, 2 hours
[2] = test system: KPL4; test: MTT assay, cytotoxicity of metabolites, KPL4; format: cell-based; conditions: KPL4; 96 h incubation
Experimental: (§1) The cells were cultivated according to the standard method using the growth media listed under C-1. The test is carried out by detaching the cells with a solution of Accutase in PBS (Biochrom AG #L2143), pelleting, resuspending in culture medium, counting and sowing into a 96-well culture plate with white bottom (Costar #3610) (NCI H292: 2500 cells/well in a total volume of 100 μl). The cells were then incubated in an incubator at 37° C. and 5% carbon dioxide. After 48 h, the medium was replaced. The metabolites in 10 μl of culture medium in concentrations from 10^−5M to 10^−13M were then pipetted to the cells (in triplicate), and the assay was then incubated in an incubator at 37° C. and 5% carbon dioxide. […] To this end, the MTT reagent was incubated with the cells for 4 h, followed by lysis of the cells overnight by addition of the detergent. The dye formed was detected at 570 nm (Infinite M1000 pro, Tecan). The measured data were used to calculate the IC50 of the growth inhibition using the DRC (dose response curve). The proliferation of cells which were not treated with test substance but were otherwise identically treated was defined as the 100% figure.

[3] = test system: NCI-H292: human mucoepidermoid lung carcinoma cells; test: MTT assay, cytotoxicity of metabolites, NCI-H292; format: cell-based; conditions: NCI-H292, 96 h incubation
Experimental: NCI-H292: human mucoepidermoid lung carcinoma cells, ATCC-CRL-1848, standard medium: RPMI 1640 (Biochrom; #FG1215, stab. glutamine)+10% FCS (Biochrom; #S0415).
as §1

[4] = test system: MCF-7: human breast cancer cells; test: CTG assay, cytotoxic effects of the anti-B7H3 ADCs, MCF-7; format: cell-based; conditions: MCF7, growth inhibition vs day 0, 72 h incubation, B7H3-positive cells
Experimental: (§2) The analysis of the cytotoxic effects of the anti-B7H3 ADCs was carried out with various cell lines:
(§3) The cells were cultivated by the standard method as stated by the American Tissue Culture Collection (ATCC) for the cell lines in question.
(§4) The cells were cultivated according to the standard method using the growth media listed under C-1. […] The cells were then incubated in an incubator at 37° C. and 5% carbon dioxide. In a parallel plate, the cell vitality was determined at the start of the drug treatment (day 0) using the Cell Titer Glow (CTG) Luminescent Cell Viability Assay (Promega #G7573 and #G7571). To this end, 100 μl of the substrate were added per cell batch, the plates were then covered with aluminium foil, shaken on the plate shaker at 180 rpm for 2 minutes, allowed to stand on the laboratory bench for 8 minutes and then measured using a luminometer (Victor X2, Perkin Elmer). The substrate detects the ATP content in the living cells, generating a luminescence signal the height of which is directly proportional to the vitality of the cells. […] From the measured data, the IC50 of the growth inhibition in comparison to day 0 was calculated using the DRC (dose response curve) analysis spreadsheets with a 4-parameter fit. […]

[5] = test system: A498: human renal carcinoma cells; test: CTG assay, cytotoxic effects of the anti-B7H3 ADCs, A498; format: cell-based; conditions: growth inhibition vs day 0, 72 h incubation, B7H3-positive cells
Experimental: as §2, §3, §4

[6] = test system: Caki-2: human renal carcinoma cells; test: CTG assay, cytotoxic effects of the anti-B7H3 ADCs, Caki-2; format: cell-based; conditions: growth inhibition vs day 0, 72 h incubation, B7H3-positive cells
Description: Caki-2: human renal carcinoma cells, ATCC-HTB-27, standard medium: DMEM/Ham's F12 (#FG4815, Biochrom AG)+10% FCS (#F2442, Sigma), B7H3-positive.

[7] = test system: Raji: human Burkitt's lymphoma cells; test: CTG assay, cytotoxic effects of the anti-B7H3 ADCs, Raji; format: cell-based; conditions: growth inhibition vs day 0, 72 h incubation, B7H3-negative cells
Experimental: as §2, §3, §4

[8] = biological target: T1, human B7H3 (RnDSystems, 2318-B3-050/CF) (human, UniProt Q5ZPR3 29-461); test: ELISA; antibody captured on anti-human IgG Fc, antigen 37 ng/ml, anti-His HRP / Amplex Red
T1 construct: Bought antigen, detected with an anti-His HRP antibody, so a His tag is implied
T1 sequence (looked up): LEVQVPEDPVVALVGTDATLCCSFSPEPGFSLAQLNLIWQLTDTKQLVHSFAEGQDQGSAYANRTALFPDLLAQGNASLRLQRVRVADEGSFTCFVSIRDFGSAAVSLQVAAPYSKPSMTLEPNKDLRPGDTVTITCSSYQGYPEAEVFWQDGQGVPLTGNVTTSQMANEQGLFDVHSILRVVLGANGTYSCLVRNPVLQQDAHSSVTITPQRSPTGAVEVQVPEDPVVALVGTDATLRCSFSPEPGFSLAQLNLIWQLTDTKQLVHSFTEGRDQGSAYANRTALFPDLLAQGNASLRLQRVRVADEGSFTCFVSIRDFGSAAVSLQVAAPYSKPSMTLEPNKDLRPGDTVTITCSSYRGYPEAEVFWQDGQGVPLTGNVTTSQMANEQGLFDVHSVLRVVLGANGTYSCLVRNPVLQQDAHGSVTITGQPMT
Experimental: (§5) TPP5706 was synthesized as described above. Binding of TPP5706 to human B7H3 and to human B7H2 and B7H4 was characterized using ELISAs. […] After washing once with PBS, 0.05% Tween, the plate was blocked with 100% Smart Block (Candor) for one hour at 37° C. The antibody to be tested (e.g. TPP5706 or one of its derivatives) was then attached to the plate (2 μg/ml IgG in PBS, 0.05% Tween, 10% Smart Block; 1 hour, room temperature). […] After washing three times, the plate was incubated with Amplex Red for 30 minutes and then read.

[9] = biological target: T2, human B7H4 (RnDSystems, 6576-B7) (human, UniProt Q7Z7D3 29-258, limits assumed); test: as above
T2 construct: Bought antigen, detected with an anti-His HRP antibody
T2 sequence (looked up): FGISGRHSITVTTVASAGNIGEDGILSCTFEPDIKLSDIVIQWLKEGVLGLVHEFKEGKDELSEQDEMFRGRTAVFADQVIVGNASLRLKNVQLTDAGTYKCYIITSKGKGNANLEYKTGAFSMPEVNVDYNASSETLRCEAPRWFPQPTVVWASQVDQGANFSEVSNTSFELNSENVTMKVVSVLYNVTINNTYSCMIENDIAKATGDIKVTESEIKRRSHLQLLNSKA
Experimental: as §5

[10] = biological target: T3, human B7H2 (RnDSystems, 8206-B7) (human, UniProt O75144 19-258, limits assumed); test: as above
T3 construct: Bought antigen, detected with an anti-His HRP antibody
T3 sequence (looked up): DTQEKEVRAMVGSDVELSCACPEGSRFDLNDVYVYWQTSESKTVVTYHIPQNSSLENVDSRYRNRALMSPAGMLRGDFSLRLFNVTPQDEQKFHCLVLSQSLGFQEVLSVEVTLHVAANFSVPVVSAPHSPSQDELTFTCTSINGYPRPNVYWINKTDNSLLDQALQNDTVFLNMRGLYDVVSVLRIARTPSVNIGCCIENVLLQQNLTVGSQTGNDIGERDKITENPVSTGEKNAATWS
Experimental: as §5

Molecule: CC(C)(C)[C@H](c1cc(-c2cc(F)ccc2F)cn1Cc1ccccc1)N(CC[C@H](N)C(=O)NC(CCC(=O)O)C(=O)O)C(=O)CO.O=C(O)C(F)(F)F (stereo in doubt) [Example M25, N-{(2S)-2-Amino-4-[{(1R)-1-[1-benzyl-4-(2,5-difluorophenyl)-1H-pyrrol-2-yl]-2,2-dimethylpropyl}(glycoloyl)amino]butanoyl}-L-glutamic acid-trifluoroacetic acid (1:1)]
- Papp (B-A) [1]: 8.1 nm/s
- IC50 [2]: 500 nM
- IC50 [3]: 500 nM

Molecule: CC(C)(C)[C@H](c1cc(-c2cc(F)ccc2F)cn1Cc1ccccc1)N(CCCN)C(=O)CO [Example M09, N-(3-Aminopropyl)-N-{(1R)-1-[1-benzyl-4-(2,5-difluorophenyl)-1H-pyrrol-2-yl]-2,2-dimethylpropyl}-2-hydroxyacetamide]
- IC50 [4]: 0.015 nM
- IC50 [5]: 0.0165 nM
- IC50 [6]: 0.0975 nM
- IC50 [7]: 0.015 nM

B1: TPP-5706 (antibody, human IgG1, kappa, V domains shown)
VH: QVQLQQPGAELVKPGASVKMSCKASGYTFTIYNVHWIKQTPGQGLEWMGTIFPGNGDTSYNQKFKDKATLTTDKSSKTAYMQLNSLTSEDSAVYYCARWDDGNVGFAHWGQGTLVTVSA
VL: DIQMTQSPASLSASVGETVTITCRASENINNYLTWFQQKQGKSPQLLVYHAKTLAEGVPSRFSGSGSGTQFSLKINSLQPEDFGSYYCQHHYGTPPTFGGGTKLEIKR
notes: Chimera of the murine Fv of the antibody from hybridoma PTA-4058 with the Ch1-Ch3 regions of a human IgG1; expressed as complete IgG; also called anti-B7H3 AK1B
- Quotient signal (B7)/signal (buffer) [8]: 294
- Quotient signal (B7)/signal (buffer) [9]: < 1.5
- Quotient signal (B7)/signal (buffer) [10]: < 1.5
